Patent publication US11440923B2, “Substituted macrocyclic indole derivatives” (Bayer Aktiengesellschaft, priority 2017, dated 2022)
Counter-ions that a name gives are not always drawn. Like-named read-outs stand apart in the source and are kept apart here.

Columns and labels:
BCL-2 = BCL-2 (Homo sapiens (Human), UniProt P10415); assay: Protein-protein interaction assay BCL-2/Bad BH3 peptide (BCL-2 assay, TR-FRET); type: binding; details: read-out: BCL-2 Assay IC50 (median)
Procedure: Assay 3 Protein-Protein Interaction Assay: BCL-2/Bad BH3 Peptide (BCL-2 Assay)
The dose-dependent inhibition by the compounds described in this invention of the interaction between BCL-2 and the BH3 domain of Bad (both human) was determined using a steady state binding competition assay with time-resolved fluorescence energy transfer (TR-FRET) readout. For that purpose BCL-2 (amino acids 1-211, C-terminal fused to a hexahistidine (6×His) tag (SEQ ID 5) and a synthetic Bad BH3-derived peptide of sequence Biotin-PEG2-PEG2-[…]-Nle-[…]-amide (SEQ ID 4) served as protein receptor and tracer ligand respectively. The recombinant BCL-2 protein (expressed in E. coli) was purchased from BPS Bioscience (San Diego, Calif., USA). The Bad BH3-derived peptide can be obtained from e.g. Biosyntan (Berlin, Germany).
In the assay 11 different concentrations of each compound (0.1 nM, 0.33 nM, 1.1 nM, 3.8 nM, 13 nM, 44 nM, 0.15 μM, 0.51 μM, 1.7 μM, 5.9 μM and 20 μM) were typically measured as duplicates in the same microtiter plate. For that, 100-fold concentrated DMSO solutions were prepared by serial dilutions (1:3.4) of a 2 mM stock solution in a clear, 384-well microtiter plate (Greiner Bio-One, Frickenhausen, Germany). From there, 50 nl were transferred in a dark test plate (Greiner Bio-One, Frickenhausen, Germany). The assay was initiated by addition of 2 μL of a 2,5-fold concentrated His-BCL-2 solution (usually for a 1 nM end concentration in 5 μL reaction volume) in aqueous assay buffer [50 mM Tris/HCl pH 7, 100 mM sodium chloride (NaCl), 50 mM potassium fluoride (KF), 0.005% Tween-20, 2 mM DTT, 0.1% bovine gamma globulin (BGG)] to the compounds in the assay plate. This was followed by a 10-minute incubation step at 22° C. for pre-equilibration of the putative complex between His-BCL-2 and the compounds. After that, 3 μL of a 1.67-fold concentrated solution (in assay buffer) consisting of Bad BH3-derived peptide (1 nM end concentration) and TR-FRET detection reagents [1.67 nM anti-His-Eu cryptate and 1.67 nM streptavidin-XL665 (both from Cisbio Bioassays, Codolet, France)], were added.
The mixture was incubated in the dark for one hour at 22° C. and then overnight at 4° C. The formation of BCL-2/Bad complexes was determined by measuring the resonance energy transfer of the anti-His-Eu-cryptate antibody to the streptavidin-XL665 present in the reaction. For that purpose, the fluorescence emission at 620 nm and 665 nm after excitation at 330-350 nm was measured in a TR-FRET measuring instrument, for instance a Rubystar or a Pherastar (both from BMG Lab Technologies, Offenburg, Germany) or a Viewlux (Perkin-Elmer). The ratio of the emission at 665 nm and at 622 nm was used as indicator of the amount of BCL-2/Bad complexes present.
The resulting data (ratio) were normalized, taking 0% inhibition as the mean value of control measurements (usually 32 data points) where all reagents were included. In this case 50 nl DMSO were used instead of compounds. […] IC50 values were determined by regression analysis based on a 4 parameter equation (minimum, maximum, IC50, Hill; Y=Max+(Min−Max)/(1+(X/IC50)^Hill) using the Screener Software (Genedata).

SUDHL10 cells = assay: Induction of cytotoxicity in SUDHL10 cells (Assay 6); type: cell-based; details: 5 h, CellTiter-Glo, read-out: Cytotox SUDHL10 IC50 (median)
Procedure, shortened: (§1)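 Overnight seeding, 37 °C; 5 h compound exposure; CellTiter-Glo, 15 min RT shake; luminescence read. No-cell medium control.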

SUDHL5 cells = assay: Induction of cytotoxicity in SUDHL5 cells (Assay 6); type: cell-based; details: 5 h, CellTiter-Glo, read-out: Cytotox SUDHL5 IC50 (median)
Procedure, shortened: as §1

Sequence of BCL-2 (P10415 1-211): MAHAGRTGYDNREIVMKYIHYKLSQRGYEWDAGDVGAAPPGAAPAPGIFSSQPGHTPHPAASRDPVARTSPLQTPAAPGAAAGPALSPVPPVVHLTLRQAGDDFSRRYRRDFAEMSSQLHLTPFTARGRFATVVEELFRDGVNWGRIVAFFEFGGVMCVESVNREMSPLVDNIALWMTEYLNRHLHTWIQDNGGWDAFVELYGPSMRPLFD

SMILES | IC50 (BCL-2) | IC50 (SUDHL10 cells; Homo sapiens, SU-DHL10, 5 h) | IC50 (SUDHL5 cells; Homo sapiens, SU-DHL-5, 5 h) | IC50 (SUDHL10 cells) | IC50 (SUDHL5 cells)
CCc1c2c(nn1C)C(CCN1CCOCC1)OCCCCn1c(C(=O)O)c(CCCOc3cccc4ccccc34)c3ccc(F)c-2c31 (racemic) [Example 10, (rac)-3-ethyl-4-fluoro-2-methyl-15-[2-(morpholin-4-yl)ethyl]-7-[3-(naphthalen-1-yloxy)propyl]-2,10,11,12,13,15-hexahydropyrazolo[4′,3′:9,10][1,6]oxazacycloundecino[8,7,6-hi]indole-8-carboxylic Acid] | > 20 µM | 300 nM | 140 nM | – | –
CCC1OCCCCn2c(C(=O)O)c(CCCOc3cccc4ccccc34)c3ccc(Cl)c(c32)-c2c1nn(C)c2C (single isomer, unassigned; enantiomer 1) [Example 29, (+)-4-chloro-15-ethyl-2,3-dimethyl-7-{3-[(naphthalen-1-yl)oxy]propyl}-2,10,11,12,13,15-hexahydropyrazolo[4′,3′:9,10][1,6]oxazacycloundecino[8,7,6-hi]indole-8-carboxylic Acid—N-ethylethanamine Salt (Enantiomer 1)] | > 20 µM | – | – | 3900 nM | 1100 nM
CCc1c2c(nn1C)C(CCN1CCOCC1)OCCCCn1c(C(=O)O)c(CCCOc3cccc4cc(F)ccc34)c3ccc(Cl)c-2c31 (racemic) [Example 22, (rac)-4-chloro-3-ethyl-7-{3-[(6-fluoronaphthalen-1-yl)oxy]propyl}-2-methyl-15-[2-(morpholin-4-yl)ethyl]-2,10,11,12,13,15-hexahydropyrazolo[4′,3′:9,10][1,6]oxazacycloundecino[8,7,6-hi]indole-8-carboxylic Acid] | > 20 µM | 28 nM | 11 nM | – | –
CCc1c2c(nn1C)C(CCN1CCC(F)(F)C1)OCCCCn1c(C(=O)O)c(CCCOc3cccc4cc(F)ccc34)c3ccc(Cl)c-2c31 (single isomer, unassigned; enantiomer 2) [Example 57, 4-chloro-15-[2-(3,3-difluoropyrrolidin-1-yl)ethyl]-3-ethyl-7-{3-[(6-fluoronaphthalen-1-yl)oxy]propyl}-2-methyl-2,10,11,12,13,15-hexahydropyrazolo[4′,3′:9,10][1,6]oxazacycloundecino[8,7,6-hi]indole-8-carboxylic Acid N-ethylethanamine Salt (Enantiomer 2)] | > 20 µM | – | – | 10000 nM | 6800 nM
Cc1c2c(nn1C)C(CCN1CCOCC1)OCCCCn1c(C(=O)O)c(CCCOc3cccc4cc(F)ccc34)c3ccc(F)c-2c31 (racemic) [Example 19, (rac)-4-fluoro-7-{3-[(6-fluoronaphthalen-1-yl)oxy]propyl}-2,3-dimethyl-15-[2-(morpholin-4-yl)ethyl]-2,10,11,12,13,15-hexahydropyrazolo[4′,3′:9,10][1,6]oxazacycloundecino[8,7,6-hi]indole-8-carboxylic Acid] | > 20 µM | 110 nM | 82 nM | – | –
CCc1c2c(nn1C)C(CCC1CCOCC1)OCCCCn1c(C(=O)O)c(CCCOc3cccc4cc(F)ccc34)c3ccc(Cl)c-2c31 (racemic) [Example 60, (rac)-4-chloro-3-ethyl-7-{3-[(6-fluoronaphthalen-1-yl)oxy]propyl}-2-methyl-(15-rac)-[2-(oxan-4-yl)ethyl]-2,10,11,12,13,15-hexahydropyrazolo[4′,3′:9,10][1,6]oxazacycloundecino[8,7,6-hi]indole-8-carboxylic Acid] | 14.1 µM | – | – | 87 nM | 77 nM

Now from value to compound, other results behind:

IC50 (BCL-2) | SMILES | IC50 (SUDHL10 cells; Homo sapiens, SU-DHL10, 5 h) | IC50 (SUDHL5 cells; Homo sapiens, SU-DHL-5, 5 h) | IC50 (SUDHL10 cells) | IC50 (SUDHL5 cells)
> 20 µM | CCc1c2c(nn1C)C(CCO)OCCCCn1c(C(=O)O)c(CCCOc3cccc4cc(F)ccc34)c3ccc(Cl)c-2c31 (racemic) [Example 44, (rac)-4-chloro-3-ethyl-7-{3-[(6-fluoronaphthalen-1-yl)oxy]propyl}-(15-rac)-(2-hydroxyethyl)-2-methyl-2,10,11,12,13,15-hexahydropyrazolo[4′,3′:9,10][1,6]oxazacycloundecino[8,7,6-hi]indole-8-carboxylic Acid] | 200 nM | 140 nM | – | –
> 20 µM | Cc1c2c(nn1C)C(C1CC1)OCCCCn1c(C(=O)O)c(CCCOc3cccc4ccccc34)c3ccc(Cl)c-2c31 (racemic) [Example 28, (rac)-4-Chloro-15-cyclopropyl-2,3-dimethyl-7-{3-[(naphthalen-1-yl)oxy]propyl}-2,10,11,12,13,15-hexahydropyrazolo[4′,3′:9,10][1,6]oxazacycloundecino[8,7,6-hi]indole-8-carboxylic Acid] | 8400 nM | 3000 nM | – | –
> 20 µM | Cc1c2c(nn1C)C(CCO)OCCCCn1c(C(=O)O)c(CCCOc3cccc4ccccc34)c3ccc(Cl)c-2c31 (single isomer, unassigned; enantiomer 1) [Example 31, (+)-4-chloro-15-(2-hydroxyethyl)-2,3-dimethyl-7-{3-[(naphthalen-1-yl)oxy]propyl}-2,10,11,12,13,15-hexahydropyrazolo[4′,3′:9,10][1,6]oxazacycloundecino[8,7,6-hi]indole-8-carboxylic Acid (Enantiomer 1)] | – | – | 350 nM | 370 nM
> 20 µM | CCc1c2c(nn1C)C(CCCN1CCOCC1)OCCCCn1c(C(=O)O)c(CCCOc3cccc4cc(F)ccc34)c3ccc(Cl)c-2c31 (racemic) [Example 65, (rac)-4-chloro-3-ethyl-7-{3-[(6-fluoronaphthalen-1-yl)oxy]propyl}-2-methyl-(15-rac)-[3-(morpholin-4-yl)propyl]-2,10,11,12,13,15-hexahydropyrazolo[4′,3′:9,10][1,6]oxazacycloundecino[8,7,6-hi]indole-8-carboxylic Acid] | 100 nM | 78 nM | – | –
15.9 µM | CCc1c2c(nn1C)C(CC(C)(C)O)OCCCCn1c(C(=O)O)c(CCCOc3cccc4cc(F)ccc34)c3ccc(Cl)c-2c31 (racemic) [Example 52, (rac)-4-chloro-3-ethyl-7-{3-[(6-fluoronaphthalen-1-yl)oxy]propyl}-(15-rac)-(2-hydroxy-2-methylpropyl)-2-methyl-2,10,11,12,13,15-hexahydropyrazolo[4′,3′:9,10][1,6]oxazacycloundecino[8,7,6-hi]indole-8-carboxylic Acid] | 280 nM | 380 nM | – | –
> 20 µM | CCc1c2c(nn1C)C(CC(C)(C)O)OCCCCn1c(C(=O)O)c(CCCOc3cccc4cc(F)ccc34)c3ccc(Cl)c-2c31 (single isomer, unassigned; enantiomer 21) [Example 54, (−)-4-chloro-3-ethyl-7-{3-[(6-fluoronaphthalen-1-yl)oxy]propyl}-15-(2-hydroxy-2-methylpropyl)-2-methyl-2,10,11,12,13,15-hexahydropyrazolo[4′,3′:9,10][1,6]oxazacycloundecino[8,7,6-hi]indole-8-carboxylic Acid—N-ethylethanamine Salt (Enantiomer 21] | – | – | 17000 nM | 9400 nM
13.2 µM | CCc1c2c(nn1C)C(c1ccccc1)OCCCCn1c(C(=O)O)c(CCCOc3cccc4cc(F)ccc34)c3ccc(Cl)c-2c31 (racemic) [Example 59, (rac)-4-chloro-3-ethyl-7-{3-[(6-fluoronaphthalen-1-yl)oxy]propyl}-2-methyl-(15-rac)-phenyl-2,10,11,12,13,15-hexahydropyrazolo[4′,3′:9,10][1,6]oxazacycloundecino[8,7,6-hi]indole-8-carboxylic Acid] | 1000 nM | 640 nM | – | –
